Reference: patent US5583221A, “Substituted fused and bridged bicyclic compounds as therapeutic agents” (Eli Lilly and Company, priority 1995, dated 1996)
Structures can show the parent of a compound that is named as a salt.

Assays:
NEUTROPHILS = test: neutrophil superoxide anion release; type: cell-based; conditions: read-out: IC50 of Compounds in Cells, NEUTROPHILS
Description: (§1) To investigate the effect that Formula I compounds have on cell growth and activity, assays are performed such as to determine growth inhibition of cultured tumor cells and cultured keritinocytes, and neutrophil superoxide anion release by well known techniques.
(§2) Table 1 also includes data from testing in a cellular assay known as the "Bleb" assay. In the Bleb assay K562 cells, a human chronic myeloid leukemia cell line, are treated with compound and scored for the appearance of morphologic changes referred to as blebs on the cell surface. […] H. Osada et al., (1988) 41:7, 925.

MCF-7 = test: growth inhibition of cultured tumor cells (MCF-7); type: cell-based; conditions: Homo sapiens, MCF7, read-out: IC50 of Compounds in Cells, MCF-7
Description: as §1, §2

[1] = test system: phorbol ester-induced mouse ear edema; test: phorbol ester-induced mouse ear edema model; type: in vivo
Description: Formula I compounds also have been tested in vivo to determine their antiinflammatory activity. The model used for this testing is the well-known, widely accepted phorbol ester-induced mouse ear edema model wherein the efficacy of a test compound to reduce the edema induced by the phorbol ester is measured.

NHEK = test: growth inhibition of cultured keritinocytes (NHEK); type: cell-based; conditions: read-out: IC50 of Compounds in Cells, NHEK
Description: as §1, §2

K562 cells [2] = test: Bleb assay in K562 cells; type: cell-based; conditions: Homo sapiens, blebs on the cell surface, read-out: IC50 of Compounds in Cells, BLEB
Description: as §2

[3] = water solubility noted during work-up; type: physicochemical; conditions: observation during HPLC fraction work-up
Description: A solution of 8-exo-[4-(2-carbophenylmethoxy-6-phenylmethoxybenzoyl)-3,5-bis(phenylmethoxy)benzoyloxy]-9-endo-(4-phenylmethoxybenzamido)tricyclo[5.2.1.0 (2,6)]decane (0.33 g, 0.32 mmol) in 6:1 ethanol/ethyl acetate (35 mL) in a 500 mL Parr bottle was treated with trifluoroacetic acid (0.15 mL) and purged with nitrogen. Pearlman's catalyst (150 mg) was added, and the vessel was charged with hydrogen (50 psi) and shaken on a Parr apparatus for 18 h. The bottle was carefully evacuated of hydrogen and the solution was filtered through Celite®, then the filter cake was washed with ethanol, but not allowed to dry. The filtrate was concentrated in vacuo to a foamy yellow solid, which was dissolved in DMF (0.8 mL) and loaded onto HPLC; conditions: A- 0.1% TFA/5% CH3 CN/H2 O, B- CH3 CN, 100% A to 100% B over one h, 25 mL/min, 41×250 mm C18 column. […] (dec). Rf (2:1 methylene chloride/methanol on silica) 0.50; IR (KBr) 1703, 1635, 1608 cm^-1; ^1 H NMR (d6 -DMSO) d 11.66 (s, 2H), 9.97 (br s, 1H), 9.88 (s, 1H), 8.35 (d, 1H, J=7 Hz), 7.75 (d, 2H, J=9 Hz), 7.38 (d, 1H, J=8 Hz), 7.28 (t, 1H, J=8 Hz), 7.06 (d, 1H, J=8 Hz), 6.83 (s, 2H), 6.79 (d, 2H, J=9 Hz), 4.83 (d, 1H, J=2.5 Hz), 4.11 (m, 1H), 2.25 (d, 1H, J=4 Hz), 2.10-2.20 (m, 1H), 2.07 (br s, 2H), 1.60-2.00 (m, 3H), 1.48 (br s, 2H), 1.10-1.30 (m, 1H), 0.90-1.10 (m, 2H); mass spectrum (FAB): m/z 588. […]

K562 cells [4] = conditions: previous studies, H. Osada et al. (1988); cited from earlier work

Row | IC50 (MCF-7) [µM] | Compound | antiinflammatory activity: reduction of edema induced by phorbol ester [1] | IC50 (NHEK) [µM] | further results
1 | – | 7-[4-(2-Methoxycarbonyl-6-hydroxybenzoyl)-3,5-dihydroxybenzoyloxy]-2-(hydroxybenzamido)bicyclo[2.2.1]heptane [Example 14] | – | – | IC50 (NEUTROPHILS): 10 µM
2 | 71 | O=C(N[C@@H]1c2ccccc2C[C@H]1OC(=O)c1cc(O)c(C(=O)c2c(O)cccc2C(=O)O)c(O)c1)c1ccc(O)cc1 (relative stereo) [Example 3, anti-1-(4-Hydroxybenzamido)-2-[3,5-dihydroxy-4-(2-carboxy-6-hydroxybenzoyl)benzoyloxy]indane] | active | 50 | –
3 | 2.1 to 4 | O=C(N[C@@H]1c2ccccc2C[C@@H]1OC(=O)c1cc(O)c(C(=O)c2c(O)cccc2C(=O)O)c(O)c1)c1ccc(O)cc1 (relative stereo) [Example 4, syn-(4-Hydroxybenzamido)-2-[3,5-dihydroxy-4-(2-carboxy-6-hydroxybenzoyl)benzoyloxy]indane] | – | 43 | –
4 | 23 | COC(=O)c1cccc(O)c1C(=O)c1c(O)cc(C(=O)O[C@@H]2Cc3ccccc3[C@H]2NC(=O)c2ccc(O)cc2)cc1O (relative stereo) [Example 5] | active | 5 | IC50 (K562 cells [2]): 50 µM
5 | 74 | COC(=O)c1cccc(O)c1C(=O)c1c(O)cc(C(=O)O[C@@H]2C3CCN(CC3)C[C@H]2NC(=O)c2ccc(O)cc2)cc1O (relative stereo) [Example 8, anti-4-[4-(2-methoxycarbonyl-6-hydroxybenzoyl)-3,5-dihydroxybenzoyloxy]-3-(4-hydroxybenzamido)-1-azabicyclo[3.2.2]nonane, trifluoroacetic acid salt] | – | 92 | IC50 (K562 cells [2]): 12.5 µM
6 | – | O=C(N[C@H]1[C@H]2CC[C@H](C2)[C@H]1OC(=O)c1cc(O)c(C(=O)c2c(O)cccc2C(=O)O)c(O)c1)c1ccc(O)cc1 (relative stereo) [Example 12, syn-2-[4-(2-Carboxy-6-hydroxybenzoyl)-3,5-dihydroxybenzoyloxy]-3-(4-hydroxybenzamido)bicyclo[2.2.1]heptane] | active | – | –
7 | – | O=C(NC1C2CCC(C2)C1OC(=O)c1cc(O)c(C(=O)c2c(O)cccc2C(=O)O)c(O)c1)c1ccc(O)cc1 (stereo not drawn) [Example 13, anti-2-[4-(2-Carboxy-6-hydroxybenzoyl)-3,5-dihydroxybenzoyloxy]-3-(4-hydroxybenzamido)bicyclo[2.2.1]heptane] | active | – | –
8 | – | COC(=O)c1cccc(O)c1C(=O)c1c(O)cc(C(=O)OC2C3CCC(C3)C2NC(=O)c2ccc(O)cc2)cc1O (stereo not drawn) [Example 16, anti-2-[4-(2-Methoxycarbonyl-6-hydroxybenzoyl)-3,5-dihydroxybenzoyloxy]-3-(4-hydroxybenzamido)bicyclo[2.2.1]heptane] | active | – | IC50 (NEUTROPHILS): 10 µM; IC50 (K562 cells [2]): 25 µM
9 | – | O=C(NC1C2CC(C3CCCC32)C1OC(=O)c1cc(O)c(C(=O)c2c(O)cccc2C(=O)O)c(O)c1)c1ccc(O)cc1 (stereo not drawn) [Example 20, 8-exo-[4-(2-Carboxy-6-hydroxybenzoyl)-3,5-dihydroxybenzoyloxy]-9-endo-(4-hydroxybenzamido)tricyclo[5.2.1.0 (2,6)]decane] | – | – | water solubility [3]: not water-soluble
10 | – | O=C(NC1C2CC(C3CCCC32)C1OC(=O)c1cc(O)c(C(=O)c2c(O)cccc2C(=O)O)c(O)c1)c1ccc(O)cc1 (stereo not drawn) [Example 21, 8-endo-[4-(2-Carboxy-6-hydroxybenzoyl)-3,5-dihydroxybenzoyl-oxy]-9-endo-(4-hydroxybenzamido)tricyclo[5.2.1.0 (2,6)]decane] | – | – | water solubility [3]: not water-soluble
11 | – | CN[C@@H]1C[C@H]2O[C@@](C)([C@@H]1OC)n1c3ccccc3c3c4c(c5c6ccccc6n2c5c31)C(=O)NC4 [staurosporine] | – | – | phorbol ester-induced blebbing (K562 cells [4]): inhibits
